Results from ChEMBL document CHEMBL1671626, “In vitro profiling of ceftaroline against a collection of recent bacterial clinical isolates from across the United States” (2008).
In brackets after ≈: the same amount, converted by molar mass.

Tests used:
Type in all cases: functional
[1] = tested on: Streptococcus agalactiae; assay: Antibacterial activity against erythromycin-nonsusceptible Streptococcus agalactiae by CLSI M7-A7 broth microdilution method
[2] = tested on: Enterococcus faecium; assay: Antibacterial activity against vancomycin-resistant Enterococcus faecium assessed as susceptible isolates by CLSI M7-A7 broth microdilution method
[3] = tested on: Staphylococcus aureus; assay: Antibacterial activity against coagulase-negative and oxacillin-susceptible Staphylococcus aureus assessed as susceptible isolates by CLSI M7-A7 broth microdilution method
[4] = tested on: Moraxella catarrhalis; assay: Antibacterial activity against beta lactamase-positive Moraxella catarrhalis by CLSI M7-A7 broth microdilution method
[5] = tested on: Staphylococcus aureus; assay: Antibacterial activity against coagulase-negative and oxacillin-resistant Staphylococcus aureus assessed as susceptible isolates by CLSI M7-A7 broth microdilution method
[6] = tested on: Streptococcus pyogenes; assay: Antibacterial activity against erythromycin-susceptible Streptococcus pyogenes by CLSI M7-A7 broth microdilution method
[7] = tested on: Streptococcus viridans; assay: Antibacterial activity against penicillin-susceptible Streptococcus viridans by CLSI M7-A7 broth microdilution method
[8] = tested on: Enterococcus faecium; assay: Antibacterial activity against vancomycin-resistant Enterococcus faecium assessed as resistant isolates by CLSI M7-A7 broth microdilution method
[9] = tested on: Streptococcus agalactiae; assay: Antibacterial activity against erythromycin-susceptible Streptococcus agalactiae by CLSI M7-A7 broth microdilution method
[10] = tested on: Streptococcus viridans; assay: Antibacterial activity against penicillin-nonsusceptible Streptococcus viridans assessed as susceptible isolates by CLSI M7-A7 broth microdilution method
[11] = tested on: Streptococcus viridans; assay: Antibacterial activity against penicillin-nonsusceptible Streptococcus viridans by CLSI M7-A7 broth microdilution method
[12] = tested on: Staphylococcus aureus; assay: Antibacterial activity against coagulase-negative and oxacillin-susceptible Staphylococcus aureus assessed as resistant isolates by CLSI M7-A7 broth microdilution method
[13] = tested on: Streptococcus viridans; assay: Antibacterial activity against penicillin-susceptible Streptococcus viridans assessed as susceptible isolates by CLSI M7-A7 broth microdilution method
[14] = tested on: Enterococcus faecalis; assay: Antibacterial activity against vancomycin-susceptible Enterococcus faecalis by CLSI M7-A7 broth microdilution method
[15] = tested on: Staphylococcus aureus; assay: Antibacterial activity against methicillin-resistant Staphylococcus aureus by CLSI M7-A7 broth microdilution method
[16] = tested on: Enterococcus faecalis; assay: Antibacterial activity against vancomycin-susceptible Enterococcus faecalis assessed as resistant isolates by CLSI M7-A7 broth microdilution method
[17] = tested on: Streptococcus pyogenes; assay: Antibacterial activity against erythromycin-susceptible Streptococcus pyogenes assessed as susceptible isolates by CLSI M7-A7 broth microdilution method
[18] = tested on: Staphylococcus aureus; assay: Antibacterial activity against methicillin-resistant Staphylococcus aureus assessed as resistant isolates by CLSI M7-A7 broth microdilution method
[19] = tested on: Staphylococcus aureus; assay: Antibacterial activity against methicillin-susceptible Staphylococcus aureus assessed as resistant isolates by CLSI M7-A7 broth microdilution method
[20] = tested on: Enterococcus faecalis; assay: Antibacterial activity against vancomycin-resistant Enterococcus faecalis assessed as resistant isolates by CLSI M7-A7 broth microdilution method
[21] = tested on: Streptococcus viridans; assay: Antibacterial activity against penicillin-nonsusceptible Streptococcus viridans assessed as resistant isolates by CLSI M7-A7 broth microdilution method
[22] = tested on: Staphylococcus aureus; assay: Antibacterial activity against coagulase-negative and oxacillin-resistant Staphylococcus aureus assessed as resistant isolates by CLSI M7-A7 broth microdilution method
[23] = tested on: Streptococcus agalactiae; assay: Antibacterial activity against erythromycin-nonsusceptible Streptococcus agalactiae assessed as susceptible isolates by CLSI M7-A7 broth microdilution method
[24] = tested on: Staphylococcus aureus; assay: Antibacterial activity against methicillin-susceptible Staphylococcus aureus by CLSI M7-A7 broth microdilution method
[25] = tested on: Staphylococcus aureus; assay: Antibacterial activity against methicillin-susceptible Staphylococcus aureus assessed as susceptible isolates by CLSI M7-A7 broth microdilution method
[26] = tested on: Enterococcus faecalis; assay: Antibacterial activity against vancomycin-susceptible Enterococcus faecalis assessed as susceptible isolates by CLSI M7-A7 broth microdilution method
[27] = tested on: Pasteurella multocida; assay: Antibacterial activity against Pasteurella multocida by CLSI M7-A7 broth microdilution method
[28] = tested on: Staphylococcus aureus; assay: Antibacterial activity against methicillin-resistant Staphylococcus aureus assessed as susceptible isolates by CLSI M7-A7 broth microdilution method
[29] = tested on: Streptococcus pyogenes; assay: Antibacterial activity against erythromycin-nonsusceptible Streptococcus pyogenes assessed as susceptible isolates by CLSI M7-A7 broth microdilution method
[30] = tested on: Enterococcus faecium; assay: Antibacterial activity against vancomycin-resistant Enterococcus faecium by CLSI M7-A7 broth microdilution method
[31] = tested on: Streptococcus pyogenes; assay: Antibacterial activity against erythromycin-nonsusceptible Streptococcus pyogenes by CLSI M7-A7 broth microdilution method
[32] = tested on: Staphylococcus aureus; assay: Antibacterial activity against coagulase-negative and oxacillin-resistant Staphylococcus aureus by CLSI M7-A7 broth microdilution method
[33] = tested on: Streptococcus agalactiae; assay: Antibacterial activity against erythromycin-susceptible Streptococcus agalactiae assessed as susceptible isolates by CLSI M7-A7 broth microdilution method
[34] = tested on: Staphylococcus aureus; assay: Antibacterial activity against coagulase-negative and oxacillin-susceptible Staphylococcus aureus by CLSI M7-A7 broth microdilution method
[35] = tested on: Enterococcus faecalis; assay: Antibacterial activity against vancomycin-resistant Enterococcus faecalis by CLSI M7-A7 broth microdilution method
[36] = tested on: Streptococcus pneumoniae; assay: Antibacterial activity against penicillin-resistant Streptococcus pneumoniae by CLSI M7-A7 broth microdilution method
[37] = tested on: Streptococcus pneumoniae; assay: Antibacterial activity against penicillin-susceptible Streptococcus pneumoniae by CLSI M7-A7 broth microdilution method

CC1(C)S[C@@H]2[C@H](NC(=O)Cc3ccccc3)C(=O)N2[C@H]1C(=O)O [PENICILLIN G]
MIC [1]: ≤ 0.12 µg/mL
MIC50 [1]: ≤ 0.12 µg/mL
MIC90 [1]: ≤ 0.12 µg/mL
Activity [2]: 0%
Activity [3]: 32.3%
MIC50 [4]: 4 µg/mL (≈ 12 µM)
MIC90 [4]: 16 µg/mL (≈ 47.8 µM)
Activity [5]: 2.3%
MIC [6]: ≤ 0.12 µg/mL
MIC50 [6]: ≤ 0.12 µg/mL
MIC90 [6]: ≤ 0.12 µg/mL
MIC [7]: ≤ 0.12 µg/mL
MIC50 [7]: ≤ 0.12 µg/mL
MIC90 [7]: ≤ 0.12 µg/mL
Activity [8]: 100%
MIC [9]: ≤ 0.12 µg/mL
MIC50 [9]: ≤ 0.12 µg/mL
MIC90 [9]: ≤ 0.12 µg/mL
Activity [10]: 0%
MIC50 [11]: 0.5 µg/mL (≈ 1.5 µM)
MIC90 [11]: 8 µg/mL (≈ 23.9 µM)
Activity [12]: 67.7%
Activity [13]: 100%
MIC50 [14]: 2 µg/mL (≈ 5.98 µM)
MIC90 [14]: 4 µg/mL (≈ 12 µM)
MIC50 [15]: > 16 µg/mL
Activity [16]: 0%
Activity [17]: 98.9%
Activity [18]: 99.5%
Activity [19]: 83.3%
Activity [20]: 0%
Activity [21]: 28.6%
Activity [22]: 97.7%
Activity [23]: 95.2%
MIC50 [24]: 4 µg/mL (≈ 12 µM)
MIC90 [24]: > 16 µg/mL
Activity [25]: 16.7%
Activity [26]: 100%
MIC50 [27]: ≤ 0.12 µg/mL
MIC90 [27]: 0.25 µg/mL (≈ 0.748 µM)
Activity [28]: 0.5%
Activity [29]: 100%
MIC [30]: > 16 µg/mL
MIC50 [30]: > 16 µg/mL
MIC90 [30]: > 16 µg/mL
MIC [31]: ≤ 0.12 µg/mL
MIC50 [31]: ≤ 0.12 µg/mL
MIC90 [31]: ≤ 0.12 µg/mL
MIC50 [32]: 8 µg/mL (≈ 23.9 µM)
Activity [33]: 100%
MIC50 [34]: 0.5 µg/mL (≈ 1.5 µM)
MIC90 [34]: 2 µg/mL (≈ 5.98 µM)
MIC50 [35]: 2 µg/mL (≈ 5.98 µM)
MIC90 [35]: 4 µg/mL (≈ 12 µM)

CCCCCCCCCC(=O)N[C@@H](Cc1c[nH]c2ccccc12)C(=O)N[C@H](CC(N)=O)C(=O)N[C@@H](CC(=O)O)C(=O)N[C@@H]1C(=O)NCC(=O)N[C@@H](CCCN)C(=O)N[C@@H](CC(=O)O)C(=O)N[C@H](C)C(=O)N[C@@H](CC(=O)O)C(=O)NCC(=O)N[C@H](CO)C(=O)N[C@@H]([C@H](C)CC(=O)O)C(=O)N[C@@H](CC(=O)c2ccccc2N)C(=O)O[C@@H]1C
MIC50 [1]: 0.12 µg/mL (≈ 0.074 µM)
MIC90 [1]: 0.25 µg/mL (≈ 0.154 µM)
Activity [2]: 100%
Activity [3]: 100%
Activity [5]: 99.7%
MIC [6]: ≤ 0.03 µg/mL
MIC50 [6]: ≤ 0.03 µg/mL
MIC90 [6]: 0.06 µg/mL (≈ 0.037 µM)
MIC50 [7]: 0.25 µg/mL (≈ 0.154 µM)
MIC90 [7]: 0.5 µg/mL (≈ 0.309 µM)
MIC50 [36]: 0.06 µg/mL (≈ 0.037 µM)
MIC90 [36]: 0.12 µg/mL (≈ 0.074 µM)
Activity [8]: 0%
MIC50 [9]: 0.12 µg/mL (≈ 0.074 µM)
MIC90 [9]: 0.12 µg/mL (≈ 0.074 µM)
Activity [10]: 100%
MIC50 [11]: 0.25 µg/mL (≈ 0.154 µM)
MIC90 [11]: 0.5 µg/mL (≈ 0.309 µM)
MIC50 [37]: 0.06 µg/mL (≈ 0.037 µM)
MIC90 [37]: 0.12 µg/mL (≈ 0.074 µM)
Activity [13]: 100%
MIC50 [14]: 1 µg/mL (≈ 0.617 µM)
MIC90 [14]: 1 µg/mL (≈ 0.617 µM)
MIC50 [15]: 0.25 µg/mL (≈ 0.154 µM)
MIC90 [15]: 0.5 µg/mL (≈ 0.309 µM)
Activity [16]: 0%
Activity [17]: 100%
Activity [20]: 0%
Activity [21]: 0%
Activity [23]: 100%
MIC50 [24]: 0.25 µg/mL (≈ 0.154 µM)
MIC90 [24]: 0.5 µg/mL (≈ 0.309 µM)
Activity [25]: 99.4%
Activity [26]: 100%
Activity [28]: 99.2%
Activity [29]: 100%
MIC50 [30]: 2 µg/mL (≈ 1.23 µM)
MIC90 [30]: 4 µg/mL (≈ 2.47 µM)
MIC [31]: ≤ 0.03 µg/mL
MIC50 [31]: ≤ 0.03 µg/mL
MIC90 [31]: 0.25 µg/mL (≈ 0.154 µM)
MIC50 [32]: 0.5 µg/mL (≈ 0.309 µM)
MIC90 [32]: 0.5 µg/mL (≈ 0.309 µM)
Activity [33]: 100%
MIC50 [34]: 0.25 µg/mL (≈ 0.154 µM)
MIC90 [34]: 0.5 µg/mL (≈ 0.309 µM)
MIC50 [35]: 0.5 µg/mL (≈ 0.309 µM)
MIC90 [35]: 1 µg/mL (≈ 0.617 µM)
